Results as given in PubChem BioAssay (NCI).
Several values for one entry are separate records, joined by “and”; a condition that tells them apart may be missing. Identical values can stand only once.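 Exposure lasted 48 hours, with cells grown in 96-well plates and compounds tested at five concentrations. The concentration for 50% growth inhibition is given as GI50. The concentration for full growth arrest is given as TGI.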

What was measured:
Assay in all cases: inhibition of tumour cell growth, NCI panel, 48 h
BT-549 breast = system: BT-549 breast
NCI/ADR-RES ovarian = system: NCI/ADR-RES ovarian
DMS 273 small cell lung = system: DMS 273 small cell lung
XF 498 CNS = system: XF 498 CNS
KM20L2 colon = system: KM20L2 colon
LOX IMVI melanoma = system: LOX IMVI melanoma
MDA-MB-435 = system: MDA-MB-435
SW-620 colon = system: SW-620 colon
A549 NSCLC = system: A549 NSCLC
NCI-H522 lung = system: NCI-H522 lung

With `CC(=O)/C(C)=N/NC(=O)c1ccccc1O` the TGI (BT-549 breast) was over 100 µM, the TGI (NCI/ADR-RES ovarian) was over 100 µM and the TGI (DMS 273 small cell lung) was over 10 µM. It also gave a TGI (XF 498 CNS) of over 10 µM, a TGI (KM20L2 colon) of over 10 µM and a GI50 (LOX IMVI melanoma) of over 100 µM. The TGI (LOX IMVI melanoma) was over 100 µM, the TGI (MDA-MB-435) was over 100 µM and the GI50 (SW-620 colon) was over 100 µM. For the same compound, the TGI (SW-620 colon) was over 100 µM, the GI50 (A549 NSCLC) was over 100 µM and the TGI (A549 NSCLC) was over 100 µM. It also gave a TGI (NCI-H522 lung) of over 100 µM.

Work on `COc1cc2c(cc1OC)C(CC(=O)NN=C(C)C)NCC2` (stereo not drawn) yielded a TGI (DMS 273 small cell lung) of over 100 µM, a TGI (XF 498 CNS) of over 100 µM and a TGI (KM20L2 colon) of over 100 µM. For the same compound, the TGI (LOX IMVI melanoma) was over 100 µM, the TGI (SW-620 colon) was over 100 µM and the TGI (A549 NSCLC) was over 100 µM. It also gave a TGI (NCI-H522 lung) of over 100 µM.

With `CC(C)C(Nc1c2ccccc2nc2ccccc12)C(=O)O` (stereo not drawn) the TGI (DMS 273 small cell lung) was over 100 µM, the TGI (XF 498 CNS) was over 100 µM and the TGI (KM20L2 colon) was over 100 µM. For the same compound, the TGI (LOX IMVI melanoma) was over 100 µM, the TGI (SW-620 colon) was over 100 µM and the TGI (A549 NSCLC) was over 100 µM. It also gave a TGI (NCI-H522 lung) of over 100 µM.

Work on `N#CCN1C(=O)c2cccc3cc([N+](=O)[O-])cc(c23)C1=O` yielded a TGI (DMS 273 small cell lung) of over 100 µM, a TGI (XF 498 CNS) of 68.3 µM and a TGI (KM20L2 colon) of over 100 µM. For the same compound, the TGI (LOX IMVI melanoma) was 66.8 µM, the TGI (SW-620 colon) was over 100 µM and the TGI (A549 NSCLC) was over 100 µM.

Compound `COc1ccccc1CCc1cc(OC)c(OC)c(OC)c1` has a TGI (DMS 273 small cell lung) of over 100 µM, a TGI (XF 498 CNS) of 84.8 µM and a TGI (KM20L2 colon) of over 100 µM. For the same compound, the TGI (LOX IMVI melanoma) was over 100 µM, the TGI (SW-620 colon) was over 100 µM and the TGI (A549 NSCLC) was over 100 µM. The TGI (NCI-H522 lung) was over 100 µM.

With `COC1(OC)C2(Cl)C(Cl)=C(Cl)C1(Cl)C1C=CC=CC12` (stereo not drawn) the TGI (DMS 273 small cell lung) was over 100 µM, the TGI (XF 498 CNS) was over 100 µM and the TGI (KM20L2 colon) was over 100 µM. It also gave a TGI (LOX IMVI melanoma) of over 100 µM, a TGI (SW-620 colon) of over 100 µM and a TGI (A549 NSCLC) of over 100 µM. For the same compound, the TGI (NCI-H522 lung) was over 100 µM.

With `COc1cccc2c1C(=O)c1c(O)c3c(c(O)c1C2=O)C[C@@](O)(C(C)=O)C[C@@H]3OC1OC(C)C(O)C(N)C1Br` (stereo partly drawn) the TGI (BT-549 breast) was 0.913 µM, the TGI (DMS 273 small cell lung) was 0.268 µM and 0.151 µM and the GI50 (XF 498 CNS) was 0.0766 µM. The TGI (XF 498 CNS) was 0.414 µM and 0.423 µM, the TGI (KM20L2 colon) was 1.17 µM and the TGI (LOX IMVI melanoma) was 0.153 µM and 0.164 µM. The TGI (MDA-MB-435) was 1.13 µM, the GI50 (SW-620 colon) was 0.0266 µM and the TGI (SW-620 colon) was 0.766 µM and 1.46 µM. The TGI (A549 NSCLC) was 0.262 µM, the GI50 (NCI-H522 lung) was 0.0563 µM and the TGI (NCI-H522 lung) was 0.449 µM and 0.324 µM.

In the case of `COc1ccc(C(=O)C(C(=O)CCC(=O)Nc2cccc(Cl)c2)c2ccc(OC)cc2)cc1` (stereo not drawn), the TGI (DMS 273 small cell lung) is reported as over 100 µM, the TGI (XF 498 CNS) is reported as over 100 µM and the TGI (KM20L2 colon) is reported as over 100 µM. For the same compound, the TGI (SW-620 colon) was over 100 µM, the TGI (A549 NSCLC) was over 100 µM and the TGI (NCI-H522 lung) was over 100 µM.

With `CC1(C)C(=O)N(CCCCCCN2C(=O)C(C)(C)c3ccccc32)c2ccccc21` the TGI (DMS 273 small cell lung) was over 100 µM, the TGI (XF 498 CNS) was 53.6 µM and the TGI (KM20L2 colon) was over 100 µM. For the same compound, the TGI (LOX IMVI melanoma) was 43.5 µM, the TGI (SW-620 colon) was 30.3 µM and the TGI (A549 NSCLC) was over 100 µM.

`Cc1ccn2c(c1)nc1nc3ccccc3nc12` was tested, and the TGI (DMS 273 small cell lung) was over 100 µM, the TGI (XF 498 CNS) was over 100 µM and the TGI (KM20L2 colon) was over 100 µM. It also gave a TGI (LOX IMVI melanoma) of over 100 µM, a TGI (SW-620 colon) of over 100 µM and a TGI (A549 NSCLC) of over 100 µM. For the same compound, the TGI (NCI-H522 lung) was over 100 µM.
